Assay results from patent publication US11938103B2, “Potentiation of helminth treatment” (Elanco Tiergesundheit AG, priority 2018, dated 2024).

What was measured:
[1] = system: Fasciola hepatica (immature stage); test: Efficacy against immature stage F. hepatica infection in sheep (Example 2); format: in vivo; settings: single oral dose day 42, livers day 91, diamphenethide 40 mg/kg, clorsulon 3.5 mg/kg, combination 40 and 3.5 mg/kg; for % Efficacy using Arithmetic mean / % Efficacy using Geometric Mean: vs untreated control
Method: In the following examples, all animals were confirmed free of infection with F. hepatica and found clinically healthy by a veterinarian prior to enrollment in the study. Doses were administered orally from suitably sized disposable syringes. […] Differences between treatment groups were analyzed by analysis of variance methods (ANOVA), as the assumptions of normal distribution were satisfied for log-transformed fluke count and log-transformed bodyweight, as well as for (untransformed) fluke measurements. Arithmetic […]), geometric […]), median and ranges were summarized for fluke counts, fluke measurements and bodyweight. A constant of one was applied for calculation of geometric means of fluke counts. […] On day 0, the sheep were experimentally infected with a target of 200 “Sunny Corner” (laboratory strain reference […]. hepatica […]. The required number of […] prepared for infection in a water and 4% carboxymethylcellulose solution. Each infective dose was followed by water administered orally. Syringes were subsequently checked post-infection for retained […] was determined that the sheep were administered between 93.5% and 100% (98.3% on average) of the target infective dose. The sheep were randomized into treatment groups on the basis of day 41 body weight and allocated to groups as denoted in Table 2.1. Body weight was determined one day prior to treatments, which were measured by volume and rounded to the nearest 0.1 mL. On day 42, and before feeding, the individual animals were treated once only with the Treatment in Table 2.1. Once the animals had been treated they were returned to their pens and fed within one hour. Untreated control animals were also fed at this time. The liver with gall bladder and common bile duct intact were recovered on day 91 from each animal and processed for F. hepatica counts. The assessment of efficacy was based on the number of live fluke removed from the liver. An ANOVA model was used to compare fluke counts between treatment groups. The model was applied to the log-transformed counts. There was one fixed effect, treatment group.

[2] = system: Fasciola hepatica (early immature stage); test: Efficacy against early immature stage F. hepatica infection in sheep (Example 3); format: in vivo; settings: single oral dose day 14, livers day 91, diamphenethide 20 mg/kg, clorsulon 10 mg/kg, combination 20 and 10 mg/kg; for % Efficacy using Arithmetic mean / % Efficacy using Geometric Mean: vs untreated control
Method: (§1) Doses were administered orally from suitably sized disposable syringes.
(§2) The fluke counts and body weights were log-transformed (after adding a constant of 1 to the fluke counts only) and the distribution of the transformed data checked to see if they satisfied the assumption of normal distribution.
(§3) Arithmetic means (Amean), geometric means (Gmean), median and ranges were summarized for fluke counts, fluke measurements and bodyweight. A constant of one was applied for calculation of geometric means of fluke counts.
(§4) The percentage efficacy for each treated group was calculated as follows: % Efficacy=100×(FCC−FCT)/FCC where FCC is the arithmetic mean fluke count of the control group and FCT is the arithmetic mean fluke count of the treated group. The formula was also applied using mean geometric fluke counts; these were calculated using log transformed data with 1 added as a constant to each fluke count and then subtracted following transformation.
(§5) Note that expected synergy is defined as: 1−Efficacy(expected without synergy)=(1−EfficacyD)×(1−EfficacyC).
This study was to assess the efficacy of diamphenethide (20 mg/kg) given concurrently with clorsulon (10 mg/kg), diamphenethide alone (20 mg/kg), and clorsulon alone (10 mg/kg) against F. hepatica in sheep with treatment on day 14. This was a controlled, blinded, randomized study using sheep.
On day 0, the sheep were experimentally infected with a target of 200 “Sunny Corner” (laboratory strain reference Fashep-66) F. hepatica metacercariae. The required number of metacercariae were prepared for infection in a water and 2% carboxymethylcellulose solution. Each infective dose was followed by water administered orally.
The sheep were randomized into treatment groups on the basis of day 13 body weight and allocated to groups as denoted in Table 3.1. Animals were treated on day 14 with a single dose as noted in Table 3.1.
Body weight was determined one day prior to treatments, which were measured by volume and rounded to the nearest 0.1 mL. On day 14, and before feeding, the individual animals were treated once only with the Treatment in Table 3.1. […] Untreated control animals were also fed at this time.
The liver with gall bladder and common bile duct intact were recovered on day 91 from each animal and processed for F. hepatica counts. The assessment of efficacy was based on the number of live fluke removed from the liver.
An ANOVA model was used to compare fluke counts between treatment groups. The model was applied to the log-transformed counts. There was one fixed effect, treatment group.

[3] = system: Fasciola hepatica (immature stage); test: Efficacy against immature stage F. hepatica infection in cattle (Example 4); format: in vivo; settings: single oral dose day 49, livers day 91 or 92, diamphenethide 60 mg/kg, clorsulon 5 mg/kg, combination 60 and 5 mg/kg; for % Efficacy using Arithmetic mean / % Efficacy using Geometric Mean: vs untreated control
Method: as §1, §2, §3, §4, §5
This study was to assess the efficacy of diamphenethide (60 mg/kg) given concurrently with clorsulon (5 mg/kg), diamphenethide alone (60 mg/kg), and clorsulon alone (5 mg/kg) against F. hepatica in cattle with treatment on day 49. This was a controlled, blinded, randomized study.
On day 0, the calves were experimentally infected with a single isolate of approximately 382 Sunny Corner (Fashep-66) isolate F. hepatica metacercariae. The required number of metacerceriae were made up in 2% carboxymethyl cellulose. Syringes were checked post-infection for retained metacerceriae. The infection was administered orally and each infective dose was followed by water administered orally. The cattle were randomized into treatment groups on the basis of day 48 body weight and allocated to groups as denoted in Table 4.1.
Body weight was determined one day prior to treatment. All treatments were measured by volume and rounded to the nearest 0.1 mL. On day 49, and before feeding, the individual animals were treated once only with the treatment in Table 4.1. […] Untreated control animals were also fed at this time.
(§6) The liver with gall bladder and bile ducts intact were recovered from each animal on day 91 or 92 and processed for F. hepatica counts. The assessment of efficacy was based on the number of live fluke removed from the liver.

[4] = system: Fasciola hepatica (early immature stage); test: Efficacy against early immature stage F. hepatica infection in cattle (Example 5); format: in vivo; settings: single oral dose day 21, livers day 91 or 92, diamphenethide 40 mg/kg, clorsulon 7 mg/kg, combination 40 and 7 mg/kg; for % Efficacy using Arithmetic mean / % Efficacy using Geometric Mean: vs untreated control
Method: as §1, §2, §3, §4, §5
This study was to assess the efficacy of diamphenethide (40 mg/kg) given concurrently with clorsulon (7 mg/kg), diamphenethide alone (40 mg/kg), and clorsulon alone (7 mg/kg) against F. hepatica in cattle with treatment on day 21. This was a controlled, blinded, randomized study.
On day 0, the calves were experimentally infected with a single isolate of approximately 350 Sunny Corner (Fashep-66) isolate F. hepatica metacercariae. The required number of metacerceriae were made up in 2% carboxymethyl cellulose. Syringes were checked post-infection for retained metacerceriae. The infection was administered orally and each infective dose was followed by water administered orally. The cattle were randomized into treatment groups on the basis of day 20 body weight and allocated to groups as denoted in Table 5.1.
Body weight was determined one day prior to treatment. All treatments were measured by volume and rounded to the nearest 0.1 mL. On day 21, and before feeding, the individual animals were treated once only with the treatment in Table […]. […] Untreated control animals were also fed at this time.
as §6

liver flukes = settings: cited from earlier work
[5] = deacylation to DAMD; cited from earlier work
Fasciola hepatica = settings: cited from earlier work

SMILES	Fluke Count, Arithmetic mean [1]	Fluke Count, Geometric Mean [1]	% Efficacy using Arithmetic mean [1] [%]	% Efficacy using Geometric Mean [1] [%]	Fluke Count, Arithmetic mean [2]	Fluke Count, Geometric Mean [2]	% Efficacy using Arithmetic mean [2] [%]	% Efficacy using Geometric Mean [2] [%]	Fluke Count, Arithmetic mean [3]	Fluke Count, Geometric Mean [3]	% Efficacy using Arithmetic mean [3] [%]	% Efficacy using Geometric Mean [3] [%]	Fluke Count, Arithmetic mean [4]	Fluke Count, Geometric Mean [4]	% Efficacy using Arithmetic mean [4] [%]	% Efficacy using Geometric Mean [4] [%]	other results
Nc1cc(C(Cl)=C(Cl)Cl)c(S(N)(=O)=O)cc1S(N)(=O)=O [Clorsulon, 4-amino-6-(1,2,2-trichloroethenyl)benzene-1,3-disulfonamide]	81.8	79.7	9.3	8.4	99.8	90.6	28.2	34.0	72.6	70.7	13.6	15.3	45.2	42.4	42.2	42.1	Effectiveness by host species (liver flukes; cattle versus sheep): more effective in cattle than in sheep; Effectiveness against mature flukes (liver flukes; mature flukes): effective against mature flukes
CC(=O)Nc1ccc(OCCOCCOc2ccc(NC(C)=O)cc2)cc1 [Diamphenethide, N-[4-[2-[2-(4-acetamidophenoxy)ethoxy]ethoxy]phenyl]acetamide]	57.6	50.9	36.1	41.5	89.0	87.5	40.0	36.3	73.8	61.8	12.1	26.0	54.2	53.1	30.7	27.5	Effectiveness against early immature flukes (liver flukes; early immature flukes up to 6 weeks of age): highly effective; Activity against flukes as they develop to maturity (liver flukes; flukes developing to maturity): progressively lower activity; Metabolism [5]: rapidly metabolized by deacylation
Cc1cc(C(C#N)c2ccc(Cl)cc2)c(Cl)cc1NC(=O)c1cc(I)cc(I)c1O (stereo not drawn) [closantel]																	Side resistance in rafoxanide-resistant F. hepatica isolates (Fasciola hepatica; F. hepatica isolates, New South Wales): side resistance to closantel was evident
O=C(Nc1ccc(Oc2ccc(Cl)cc2)c(Cl)c1)c1cc(I)cc(I)c1O [rafoxanide]																	Isolates showing resistance at recommended doses (Fasciola hepatica; ten of seventeen F. hepatica isolates from different geographical regions): 58.8%
